“And” between values parts separate entries of the source, which are not always exact repeats. Equal entries are not always repeated.
Biological target: T1, GVIA iPLA2 (Homo sapiens, UniProt O60733)
T1 sequence (O60733 1-806): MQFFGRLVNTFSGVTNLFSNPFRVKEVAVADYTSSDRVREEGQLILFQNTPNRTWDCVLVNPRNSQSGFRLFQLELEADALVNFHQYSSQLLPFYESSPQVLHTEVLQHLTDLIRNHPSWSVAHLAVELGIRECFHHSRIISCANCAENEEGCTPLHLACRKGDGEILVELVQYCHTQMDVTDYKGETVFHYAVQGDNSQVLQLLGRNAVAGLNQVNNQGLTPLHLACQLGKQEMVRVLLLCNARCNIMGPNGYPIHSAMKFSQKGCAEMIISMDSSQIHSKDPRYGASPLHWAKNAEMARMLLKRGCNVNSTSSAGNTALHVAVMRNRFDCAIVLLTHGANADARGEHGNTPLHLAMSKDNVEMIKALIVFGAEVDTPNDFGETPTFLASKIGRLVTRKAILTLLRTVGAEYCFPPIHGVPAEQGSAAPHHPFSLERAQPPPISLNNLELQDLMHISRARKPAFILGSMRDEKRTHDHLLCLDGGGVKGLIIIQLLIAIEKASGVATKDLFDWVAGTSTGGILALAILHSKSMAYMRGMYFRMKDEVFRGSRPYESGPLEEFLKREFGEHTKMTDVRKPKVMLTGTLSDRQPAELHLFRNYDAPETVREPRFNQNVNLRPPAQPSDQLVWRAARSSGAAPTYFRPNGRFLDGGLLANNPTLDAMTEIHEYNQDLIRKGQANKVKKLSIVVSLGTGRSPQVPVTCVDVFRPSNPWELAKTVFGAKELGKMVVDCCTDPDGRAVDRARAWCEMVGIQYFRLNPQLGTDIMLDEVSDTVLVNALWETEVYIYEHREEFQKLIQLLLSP
Assay: In vitro PLA2 mixed micellar assay (modified Dole assay), GVIA iPLA2
Type: biochemical
Conditions: for GVIA iPLA2 X1(50): mixed micelles, mole fraction of inhibitor in total substrate interface required to inhibit the enzyme by 50%; for GVIA iPLA2 % inhibition: at 0.091 mole fraction of inhibitor, n = 3
Experimental: FIG. 3 illustrates the dose-response curves for 2-oxoamide inhibitors of GVIA iPLA2. Inhibition of the activity of human GVIA iPLA2 by inhibitors (a) 8a and (b) 13 was tested on mixed-micelles containing 100 μM PAPC and 400 μM Triton X-100. Inhibition curves were generated by Graphpad Prism using a non-linear regression (one-site binding model—hyperbola) to calculate the reported XI(50) values.
All the inhibitors synthesized in this work were tested for inhibition of GIVA cPLA2, GVIA iPLA2 and GV sPLA2 using mixed micellar assays. Details for the assays have been published previously. The results of the inhibition are presented in Table 1 using either percent inhibition or XI(50) values. Initially, the percent inhibition of each PLA2 at 0.091 mole fraction of inhibitor was determined. XI(50) values were estimated when the percent inhibition was higher than 90%. The XI(50) is the mole fraction of the inhibitor in the total substrate interface required to inhibit the enzyme by 50%. Data for the reference 2-oxoamide inhibitors AX006 and AX048 are included in Table 1 for comparison.
Phospholipase A2 activity was determined using the previously described modified Dole assay with buffer and substrate conditions optimized for each enzyme as described previously: (i) GIVA cPLA2 substrate mixed-micelles were composed of 400 μM Triton X-100, 97 μM PAPC, 1.8 μM ^14C-labeled PAPC, and 3 μM PIP2 in buffer containing 100 mM HEPES pH 7.5, 90 μM CaCl2, 2 mM DTT and 0.1 mg/ml BSA; (ii) GVI iPLA2 substrate mixed-micelles were composed of either (a) 400 μM Triton X-100, 99 μM DPPC, and 1.5 μM ^14C-labeled DPPC in buffer containing 200 mM HEPES pH 7.0, 1 mM ATP, 2 mM DTT and 0.1 mg/ml BSA or (b) 400 μM Triton X-100, 98.3 μM PAPC, and 1.7 μM ^14C-labeled PAPC in buffer containing 100 mM HEPES pH 7.5, 2 mM ATP and 4 mM DTT; and (iii) GV sPLA2 substrate mixed-micelles were composed of 400 μM Triton X-100, 99 μM DPPC, and 1.5 μM ^14C-labeled DPPC in buffer containing 50 mM Tris pH 8.0 and 5 mM CaCl2.
Initial screening of compounds at 0.091 mole fraction inhibitor in mixed-micelles was carried out. Compounds displaying 25% or less inhibition had no inhibitory affect (designated N.D.). The average percent inhibition (and standard error, n=3) for compounds displaying more than 25% and less than 90% enzyme inhibition is reported herein. If the percent inhibition was greater than 90%, then its XI(50) was determined by plotting percent inhibition vs. inhibitor molar fraction (7 points; typically 0.005 to 0.091 mole fraction). Inhibition curves were modeled in Graphpad Prism using either a linear (x, y intercept=0) or non-linear regression (one-site binding model—hyperbola, BMAX=100) to calculate the reported XI(50) and associated error values.

| SMILES | GVIA iPLA2 X1(50) | GVIA iPLA2 % inhibition |
| --- | --- | --- |
| CCCCCCCCCCCCCCC(=O)C(=O)N[C@@H](CCCC)C(=O)NCC(=O)OC [Compound 4a, (S)-Methyl 2-(2-(2-oxohexadecanamido)hexanamido)acetate] | 0.045 ± 0.018 mole fraction | – |
| CCCCCCCCCCCCCCC(=O)C(=O)N[C@H](C(=O)NCC(=O)OC)C(C)C [Compound 4b, (S)-Methyl-2-(3-methyl-2-(2-oxohexadecanamido)butanamido)-acetate] | – | N.D.^a (N.D. signifies compounds with less than 25% inhibition (or no detectable inhibition).) |
| CCCCCCCCCCCCCCC(=O)C(=O)N[C@@H](CCCC)C(=O)NCC(=O)OCC [Compound 4c, (S)-Ethyl 2-(2-(2-oxohexadecanamido)hexanamido)acetate] | 0.020 mole fraction and 0.020 ± 0.002 mole fraction | – |
| CCCCCCCCCCCCCCC(=O)C(=O)N[C@@H](CCCC)C(=O)NCC(=O)OC(C)(C)C [Compound 8a, (S)-tert-Butyl 2-(2-(2-oxohexadecanamido)hexanamido)acetate] | 0.011 mole fraction and 0.011 ± 0.001 mole fraction | – |
| CCCCCCCCCCCCCCC(=O)C(=O)N[C@H](C(=O)NCC(=O)OC(C)(C)C)C(C)C [Compound 8b, (S)-tert-Butyl-2-(3-methyl-2-(2-oxohexadecanamido)butanamido)-acetate] | 0.044 ± 0.025 mole fraction | – |
| CCCCCCCCCCCCCCC(=O)C(=O)N[C@@H](CCCC)C(=O)NCC(=O)O [Compound 9a, (S)-2-(2-(2-Oxohexadecanamido)hexanamido)acetic Acid] | – | N.D.^a (N.D. signifies compounds with less than 25% inhibition (or no detectable inhibition).) |
| CCCCCCCCCCCCCCC(=O)C(=O)N[C@H](C(=O)NCC(=O)O)C(C)C [Compound 9b, (S)-2-(3-Methyl-2-(2-oxohexadecanamido)butanamido)acetic Acid] | – | N.D.^a (N.D. signifies compounds with less than 25% inhibition (or no detectable inhibition).) |
| CCCCCCCCCCCCCCC(=O)C(=O)N[C@@H](CCCC)COCC(=O)OCC [Compound 13, (S)-Ethyl 2-(2-(2-oxohexadecanamido)hexyloxy)acetate] | 0.017 mole fraction and 0.017 ± 0.002 mole fraction | – |
| CCCCCCCCCCCCCCC(=O)C(=O)N[C@@H](CCCC)COCC(=O)OC(C)(C)C [Compound 17, (S)-tert-Butyl 2-(2-(2-oxohexadecanamido)hexyloxy)acetate] | – | 81% |
| CCCCCCCCCCCCCCC(=O)C(=O)N[C@@H](CCCC)COCC(=O)O [Compound 18, (S)-2-(2-(2-oxohexadecanainido)hexyloxy)acetic Acid] | – | N.D.^a (N.D. signifies compounds with less than 25% inhibition (or no detectable inhibition).) |
